Literature values, collected in patent publication US20050152951A1, “Liquid, eye-instillable preparations comprising sodium hyaluronate” (priority 2001, published 2005).

Conditions: water retained by 1 gram of SH

**Q.** Which water retention does the source give for Sodium hyaluronate [SH] here?
**A.** up to 6 litres
